US20160077084A1, “AMPHIBIAN OOCYTE OR EMBRYO BIOASSAY” (THE BOARD OF TRUSTEES OF THE UNIVERSITY OF ARKANSAS, priority 2013, published 2016)
Entries after “also recorded” stand apart in the source; their conditions may differ.

Assays:
MAP kinase (MAPK) = assay: Western blot of treated oocytes, MAP kinase phosphorylation; format: cell-based, Xenopus
Excerpt: (§1) To begin to decipher the mechanism of action of the compounds that modified oocyte maturation, their effects on regulators of the meiotic cell cycle were examined. In particular, Musashi (Msi1) phosphorylation, Msi2 phosphorylation, MAP kinase phosphorylation, and Cdc2 (also called CDK1) dephosphorylation were examined in Xenopus oocytes treated with a modifying compound or only DMSO (i.e., control). The oocytes were processed for Western blot analysis using standard procedures, and the blots were probed with antibodies specific for phosphorylated or non-phosphorylated forms of the proteins of interest.

Xenopus oocytes [1] = assay: Xenopus oocyte bioassay: oocyte maturation (GVBD) in the absence of progesterone; format: cell-based; settings: for activation of GVBD: no progesterone (FIG. 6)
Cdc2 (also called CDK1) = assay: Western blot of treated oocytes, Cdc2 (CDK1) dephosphorylation / MPF activation; format: cell-based, Xenopus; settings: for dephosphorylation of cdc2 (CDK1), activation of MPF: activators, no progesterone, PNR-5-46 5 μM, JVM-9 100 μM (FIG. 8A)
Excerpt: as §1

Xenopus oocytes [2] = assay: Xenopus oocyte bioassay: oocyte maturation (GVBD) in the absence of progesterone; format: cell-based; settings: screen at 100 μM
Procedure: (§2) Oocyte maturation was monitored at regular intervals using a high content image capture procedure. Immature stage VI Xenopus oocytes were transferred to wells of a flat bottom 96-well plate containing about 178 μL of L15 culture media. The oocytes were transferred using wide mouth 200 μL pipette tips with minimal transfer of culture medium (e.g., about 20 μL). Generally, the oocytes oriented with the dark-pigmented animal hemisphere facing up due to the higher density of the yolk-containing vegetal hemisphere. Incorrectly orientated oocytes were gently manipulated using a drawn-out capillary tube or other tool to rotate them into the correct orientation. […] The oocytes were incubated for about 16 hours (i.e., overnight) at 16-25° C. in the presence of 1% DMSO (i.e., 2 μL of 100% DMSO).
Oocyte maturation was stimulated by the addition of progesterone. For this, 2 μL of 1000× stock solution (2 mg/mL in ethanol) was added to the appropriate wells to yield a final concentration of 2 μg/mL (although other concentrations of progesterone may be employed). […]
The plate was imaged prior to and after addition of progesterone (i.e., images were taken at regular intervals over a period of 7 hours). Oocyte maturation was phenotypically assessed by the appearance of a white spot at the animal pole of the oocyte. […]

MCF-7 cells = assay: Mammosphere formation (breast cancer stem cell self-renewal), MCF-7; format: cell-based; settings: compound first 3 days, scored day 14 (P2), 50, 5 and 0.5 μM
Excerpt: (§3) Mammosphere culture growth presents a useful indicator of the presence of breast cancer cells with stem cell-like properties. Breast cancer cell lines grown as mammospheres (under non-adherent plating conditions) recapitulate the three-dimensional organization of tumors. Importantly, assessment of stem cell self-renewal capacity can be achieved through dispersion of mammospheres to single cells and subsequent limited dilution replating. […] At day 7, mammospheres were collected, dispersed to single cells and replated at limiting dilution (P1). Spheroids were scored at day 14 (P2). Mammosphere forming units (MFUs) are defined as spheroid bodies >100 μm (MCF-7 cells) or >65 μm (MDA MB231 cells) diameter after 7 (P1) or 14 (P2) days growth in non-adherent culture.

Xenopus oocytes [3] = assay: Xenopus oocyte bioassay: progesterone-induced oocyte maturation (GVBD); format: cell-based
Procedure: as §2
Oocyte maturation was stimulated by the addition of progesterone. For this, 2 μL of 1000× stock solution (2 mg/mL in ethanol) was added to the appropriate wells to yield a final concentration of 2 μg/mL (although other concentrations of progesterone may be employed). The 96-well plate was imaged from the top-down (see FIG. 4E) using a 36-megapixel Nikon D800 SLR camera with an AF Micro Nikkor 60 mm, f/2.8 lens, mounted on a dedicated copy stand (with adjustable flanking light sources).
The plate was imaged prior to and after addition of progesterone (i.e., images were taken at regular intervals over a period of 7 hours). Oocyte maturation was phenotypically assessed by the appearance of a white spot at the animal pole of the oocyte. The white spot is due to migration of the germinal vesicle towards the animal pole prior to germinal vesicle breakdown (GVBD). The high resolution images were digitally zoomed after capture to analyze the maturation status of oocytes in individual wells of the plate (FIGS. 4A-D).
The Xenopus oocyte bioassay was used to screen a collection of about 2000 low molecular weight small molecules. Oocytes were distributed among multi-well plates essentially as described above in Example 1. The test compounds were dissolved in DMSO to make 100× stock solutions. The test compounds were added to the appropriate wells at a final concentration of 100 μM (and 1% DMSO). No drug control oocytes were exposed to 1% DMSO only. Sixteen hours later, progesterone was added to the appropriate wells, with the first and last wells of each plate containing the no drug control oocytes. The rate of maturation in the first and last wells served as an intra-assay control for time taken for progesterone addition across each multiwell plate. The plates were imaged essentially as described above in Example 1.

SHSY5Y = assay: Neurosphere formation, neuroblastoma cell line SHSY5Y; format: cell-based; settings: lowest dose tested 0.5 μM (FIG. 11A)
Procedure: (§4) The activity of the three test compounds to inhibit neurosphere formation was also tested in a neuroblastoma cell line SHSY5Y and a glioblastomoa cell line U87. All three compounds attenuated neurosphere formation in both cell lines, to varying degrees of efficacy (FIGS. 11A,B). […] None of the compounds affected cell viability.

U87 = assay: Neurosphere formation, glioblastoma cell line U87; format: cell-based; settings: lowest dose tested 0.5 μM (FIG. 11B)
Procedure: as §4

MDA MB231 cells = assay: Mammosphere formation (breast cancer stem cell self-renewal), MDA MB231; format: cell-based; settings: compound first 3 days, scored day 14 (P2), 50, 5 and 0.5 μM
Excerpt: as §3

MCF-7 or MDA MB231 cells = assay: General cell viability of breast cancer cells; format: cell-based; settings: 0.5 μM dose
Musashi1 (Msi1) = assay: Western blot of treated oocytes, Msi1 phosphorylation; format: cell-based, Xenopus
Excerpt: as §1

Musashi2 (Msi2) = assay: Western blot of treated oocytes, Msi2 phosphorylation; format: cell-based, Xenopus; settings: FIG. 8B
Excerpt: as §1

[4] = activators, no progesterone, PNR-5-46 5 μM, JVM-9 100 μM (FIG. 8A)
[5] = in response to progesterone (FIG. 9)

Structure (SMILES) | phosphorylation of MAP kinase (MAP kinase (MAPK); [4]) | dephosphorylation of cdc2 (CDK1), activation of MPF (Cdc2 (also called CDK1)) | progesterone-independent oocyte maturation (activator) (Xenopus oocytes [2]) | mammosphere formation relative to DMSO-treated control cells (MCF-7 cells) | neurosphere formation / stem cell self-renewal (SHSY5Y) | neurosphere formation / stem cell self-renewal (U87) | mammosphere formation relative to DMSO-treated control cells (MDA MB231 cells) | general cell viability (MCF-7 or MDA MB231 cells) | also measured
C/C1=C\CC[C@@]2(C)O[C@H]2[C@H]2OC(=O)[C@@H](CNc3nc4ccccc4[nH]3)[C@@H]2CC1 [JVM-9] | promoted phosphorylation | dephosphorylation of cdc2 | activation of maturation; also recorded: activators; also recorded: activated spontaneous oocyte maturation | – | – | – | – | – | activation of GVBD (Xenopus oocytes [1]; 10 μM): less effective; activation of GVBD (Xenopus oocytes [1]; 100 and 50 μM): activated GVBD
C/C1=C\CC[C@@]2(C)O[C@H]2[C@H]2OC(=O)[C@@H](CNCCCn3ccnc3)[C@@H]2CC1 [JVM-20] | – | – | – | effectively inhibited | particularly effective | particularly effective | effectively inhibited | no significant effect | effect on progesterone-stimulated maturation (Xenopus oocytes [3]; from 1 to 50 μM): accelerate; effect on progesterone-stimulated maturation (Xenopus oocytes [3]; high dose (100 μM)): inhibit
C/C1=C\CC[C@@]2(C)O[C@H]2[C@H]2OC(=O)/C(=C\c3ccc(N)cc3)[C@@H]2CC1 [PNR-5-41] | – | – | – | did not | Significant inhibition | Significant inhibition | did not | – | EC50 (Xenopus oocytes [3]; Xenopus laevis, Oocyte, progesterone-induced, p<0.05, n=5 vs DMSO only, read-out: EC50 (inhibition of progesterone-induced maturation)): 5 µM; effect on rate of progesterone-induced oocyte maturation (inhibitor) (Xenopus oocytes [3]; progesterone-induced): attenuation of progesterone-induced GVBD; also recorded: inhibitor; also recorded: inhibited progesterone-induced maturation in a dose-dependent manner; phosphorylation of Msi1 (Musashi1 (Msi1); [5]): did not affect phosphorylation; phosphorylation of MAP kinase (MAP kinase (MAPK); [5]): did not affect phosphorylation; de-phosphorylation and activation of cyclin B/CDK1 (MPF) (Cdc2 (also called CDK1); [5]): blocked
C/C1=C\CC[C@@]2(C)O[C@H]2[C@H]2OC(=O)/C(=C\c3cccc(Br)c3)[C@@H]2CC1 [PNR-5-46] | promoted phosphorylation | dephosphorylation of cdc2 | hormone-independent activation of maturation; also recorded: activators; also recorded: induced oocyte maturation | effectively inhibited | not | not | effectively inhibited | no significant effect | activation (phosphorylation) of Msi2 (Musashi2 (Msi2)): triggered activation; activation (phosphorylation) of Msi1 (Musashi1 (Msi1); not shown): triggered activation; EC50 (Xenopus oocytes [1]; Xenopus laevis, Oocyte, absence of progesterone, read-out: EC50 (activation of oocyte maturation)): 7 µM; percent of oocytes that initiated GVBD (Xenopus oocytes [1]; by about 4 hours, no progesterone, 100 μM PNR-5-46 (FIG. 5)): About 35%
CC(=O)[C@H]1CC[C@H]2[C@@H]3CCC4=CC(=O)CC[C@]4(C)[C@H]3CC[C@]12C [progesterone, reference compound] | – | – | – | – | – | – | – | – | percent of oocytes that started GVBD (Xenopus oocytes [3]; by about 7 hours, progesterone-treated oocytes (FIG. 5)): About 35%
